Key:
[1] = molecular target: T1, human orexin-2 receptor (Homo sapiens, UniProt O43614); assay: FLIPR Ca2+ flux assay, OX2R; assay type: cell-based; conditions: for IC50: CHO cells expressing the human orexin-2 receptor, agonist 70 pM Ala-6,12 orexin-A; for Fold Selective: OX1R FLIPR / OX2R FLIPR
T1 construct: expressed in transfected cells; host or cells: CHO cells (grown under G418 selection)
T1 sequence (O43614 1-444): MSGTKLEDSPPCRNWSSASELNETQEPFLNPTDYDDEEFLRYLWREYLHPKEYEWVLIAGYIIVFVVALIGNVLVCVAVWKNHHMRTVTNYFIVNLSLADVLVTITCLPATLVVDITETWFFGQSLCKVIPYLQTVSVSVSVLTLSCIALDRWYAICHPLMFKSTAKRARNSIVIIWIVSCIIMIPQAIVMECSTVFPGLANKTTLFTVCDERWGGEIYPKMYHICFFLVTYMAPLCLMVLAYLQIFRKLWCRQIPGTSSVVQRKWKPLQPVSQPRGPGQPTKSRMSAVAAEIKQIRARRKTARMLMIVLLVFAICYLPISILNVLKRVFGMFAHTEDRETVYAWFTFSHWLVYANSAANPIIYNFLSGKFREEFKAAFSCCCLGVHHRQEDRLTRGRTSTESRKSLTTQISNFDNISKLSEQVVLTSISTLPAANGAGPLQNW
Experimental: (§1) The utility of the compounds in accordance with the present invention as orexin receptor OX1R and/or OX2R antagonists may be readily determined without undue experimentation by methodology well known in the art, including the “FLIPR Ca^2+ Flux Assay” (Okumura et al., Biochem. Biophys. Res. Comm. 280:976-981, 2001). In a typical experiment the OX1 and OX2 receptor antagonistic activity of the compounds of the present invention was determined in accordance with the following experimental method. For intracellular calcium measurements, Chinese hamster ovary (CHO) cells expressing the rat orexin-1 receptor or the human orexin-2 receptor, are grown in Iscove's modified DMEM containing 2 mM L-glutamine, […], 1% hypoxanthine-thymidine supplement, 100 U/ml penicillin, 100 μg/ml streptomycin and 10% heat-inactivated fetal calf serum (FCS). The cells are seeded at 20,000 cells/well into Becton-Dickinson black 384-well clear bottom sterile plates coated with poly-D-lysine. All reagents were from GIBCO-Invitrogen Corp. The seeded plates are incubated overnight at 37° C. and 5% CO2. Ala-6,12 human orexin-A as the agonist is prepared as a 1 mM stock solution in 1% bovine serum albumin (BSA) and diluted in assay buffer (HBSS containing 20 mM HEPES, 0.1% BSA and 2.5 mM probenecid, pH7.4) for use in the assay at a final concentration of 70 pM. Test compounds are prepared as 10 mM stock solution in DMSO, then diluted in 384-well plates, first in DMSO, then assay buffer. On the day of the assay, cells are washed 3 times with 100 μl assay buffer and then incubated for 60 min (37° C., 5% CO2) in 60 μl assay buffer containing 1 μM Fluo-4AM ester, 0.02% pluronic acid, and 1% BSA. The dye loading solution is then aspirated and cells are washed 3 times with 100 μl assay buffer. 30 μl of that same buffer is left in each well. Within the Fluorescent Imaging Plate Reader (FLIPR, Molecular Devices), test compounds are added to the plate in a volume of 25 μl, incubated for 5 min and finally 25 μl of agonist is added. Fluorescence is measured for each well at 1 second intervals for 5 minutes and the height of each fluorescence peak is compared to the height of the fluorescence peak induced by 70 pM Ala-6,12 orexin-A with buffer in place of antagonist. For each antagonist, IC50 value (the concentration of compound needed to inhibit 50% of the agonist response) is determined. Alternatively, compound potency can be assessed by a radioligand binding assay (described in Bergman et. al. Bioorg. Med. Chem. Lett. 2008, 18, 1425-1430) in which the inhibition constant (Ki) is determined in membranes prepared from CHO cells expressing either the OX1 or OX2 receptor. The intrinsic orexin receptor antagonist activity of a compound which may be used in the present invention may be determined by these assays.

[2] = molecular target: T2, rat orexin-1 receptor (Rattus norvegicus, UniProt P56718); assay: FLIPR Ca2+ flux assay, OX1R; assay type: cell-based; conditions: CHO cells expressing the rat orexin-1 receptor; agonist 70 pM Ala-6,12 orexin-A
T2 construct: expressed in transfected cells; host or cells: CHO cells (grown under G418 selection)
T2 sequence (P56718 1-416): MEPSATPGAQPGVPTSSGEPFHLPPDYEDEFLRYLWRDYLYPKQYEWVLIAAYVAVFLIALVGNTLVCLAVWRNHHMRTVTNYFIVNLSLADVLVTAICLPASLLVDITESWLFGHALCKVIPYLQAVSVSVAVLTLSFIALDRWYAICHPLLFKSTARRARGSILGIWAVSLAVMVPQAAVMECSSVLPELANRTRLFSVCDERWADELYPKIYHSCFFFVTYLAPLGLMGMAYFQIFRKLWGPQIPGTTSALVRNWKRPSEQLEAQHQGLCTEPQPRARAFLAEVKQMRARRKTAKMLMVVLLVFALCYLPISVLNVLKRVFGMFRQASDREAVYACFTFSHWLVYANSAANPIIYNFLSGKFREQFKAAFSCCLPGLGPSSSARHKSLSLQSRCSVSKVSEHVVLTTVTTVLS
Experimental: as §1

IC50 [1] [µM] | Fold Selective [1] | IC50 [2] [µM] | SMILES
0.005 | 41 | 0.206 | Cc1cc(C)nc(N2CC3CC2CN(C(=O)c2cccnc2OCC(F)(F)C(F)F)C3)n1 (stereo not drawn) [Example 43, 6-(4,6-dimethylpyrimidin-2-yl)-3-{[2-(2,2,3,3-tetrafluoropropoxy)pyridin-3-yl]carbonyl}-3,6-diazabicyclo[3.2.1]octane]
0.047 | >213 | > 10 | Cc1cc(C)nc(N2CC3CC2CN(C(=O)c2ccccc2CS(C)(=O)=O)C3)n1 (stereo not drawn) [Example 28, 6-(4,6-dimethylpyrimidin-2-yl)-3-({2-[(methylsulfonyl)methyl]phenyl}carbonyl)-3,6-diazabicyclo[3.2.1]octane]
0.014 | 84 | 1.18 | CCCc1ccccc1C(=O)N1CC2CC(C1)N(c1nc(C)cc(C)n1)C2 (stereo not drawn) [Example 27, 6-(4,6-dimethylpyrimidin-2-yl)-3-[(2-propylphenyl)carbonyl]-3,6-diazabicyclo[3.2.1]octane]
0.024 | 112 | 2.68 | Cc1cc(C)nc(N2CC3CC2CN(C(=O)c2ccccc2OC(F)F)C3)n1 (stereo not drawn) [Example 34, 3-{[2-(difluoromethoxy)phenyl]carbonyl}-6-(4,6-dimethylpyrimidin-2-yl)-3,6-diazabicyclo[3.2.1]octane]
0.012 | 49 | 0.584 | Cc1cc(C)nc(N2CC3CC2CN(C(=O)c2cccnc2OCC2CC2(F)F)C3)n1 (stereo not drawn) [Example 41, 3-({2-[(2,2-difluorocyclopropyl)methoxy]pyridin-3-yl}carbonyl)-6-(4,6-dimethylpyrimidin-2-yl)-3,6-diazabicyclo[3.2.1]octane]
0.037 | 103 | 3.83 | Cc1cc(C)nc(N2CC3CC2CN(C(=O)c2nccnc2OCC2CC2)C3)n1 (stereo not drawn) [Example 48, (3-(cyclopropylmethoxy)pyrazin-2-yl)(6-(4,6-dimethylpyrimidin-2-yl)-3,6-diazabicyclo[3.2.1]octan-3-yl)methanone]
0.016 | 61 | 0.982 | Cc1cc(C)nc(N2CC3CC2CN(C(=O)c2ccccc2OC(C)C)C3)n1 (stereo not drawn) [Example 16, 6-(4,6-dimethylpyrimidin-2-yl)-3-{[2-(1-methylethoxy)-phenyl]carbonyl}-3,6-diazabicyclo[3.2.1]octane]
0.023 | 81 | 1.87 | Cc1cc(C#N)nc(N2CC3CC2CN(C(=O)c2ccccc2CC(F)(F)F)C3)n1 (stereo not drawn) [Example 1, 6-methyl-2-(3-(2-(2,2,2-trifluoroethyl)benzoyl)-3,6-diazabicyclo[3.2.1]octan-6-yl)pyrimidine-4-carbonitrile]
0.046 | >217 | > 10 | Cc1cc(C#N)nc(N2CC3CC2CN(C(=O)c2ccccc2OC(F)F)C3)n1 (stereo not drawn) [Example 2, 2-(3-(2-(difluoromethoxy)benzoyl)-3,6-diazabicyclo[3.2.1]-octan-6-yl)-6-methylpyrimidine-4-carbonitrile]
0.017 | 44 | 0.743 | Cc1cc(C)nc(N2CC3CC2CN(C(=O)c2cccc(F)c2C2CC2)C3)n1 (stereo not drawn) [Example 24, (2-cyclopropyl-3-fluorophenyl)(6-(4,6-dimethylpyrimidin-2-yl)-3,6-diazabicyclo[3.2.1]octan-3-yl)methanone]
0.018 | 148 | 2.67 | Cc1cc(C)nc(N2CC3CC2CN(C(=O)c2cccnc2OC(C)C)C3)n1 (stereo not drawn) [Example 21, 6-(4,6-dimethylpyrimidin-2-yl)-3-{[2-(1-methylethoxy)pyridin-3-yl]carbonyl}-3,6-diazabicyclo[3.2.1]octane]
0.013 | 86 | 1.12 | Cc1cc(C)nc(N2CC3CC2CN(C(=O)c2ccccc2C2(C#N)CC2)C3)n1 (stereo not drawn) [Example 29, 1-(2-{[6-(4,6-dimethylpyrimidin-2-yl)-3,6-diazabicyclo[3.2.1]oct-3-yl]carbonyl}-phenyl)-cyclopropanecarbonitrile]
0.015 | 42 | 0.628 | Cc1cc(C)nc(N2CC3CC2CN(C(=O)c2cccnc2OCC2CCC2)C3)n1 (stereo not drawn) [Example 42, 3-{[2-(cyclobutylmethoxy)pyridin-3-yl]carbonyl}-6-(4,6-dimethylpyrimidin-2-yl)-3,6-diazabicyclo[3.2.1]octane]
0.09 | >111 | > 10 | Cc1cc(C)nc(N2CC3CC2CN(C(=O)c2cccnc2-n2nccn2)C3)n1 (stereo not drawn) [Example 31, 6-(4,6-dimethylpyrimidin-2-yl)-3-{[2-(2H-1,2,3-triazol-2-yl)pyridin-3-yl]carbonyl}-3,6-diazabicyclo[3.2.1]octane]
0.058 | >172 | > 10 | Cc1cc(C)nc(N2CC3CC2CN(C(=O)c2cccnc2CC(F)(F)F)C3)n1 (stereo not drawn) [Example 32, 6-(4,6-dimethylpyrimidin-2-yl)-3-{[2-(2,2,2-trifluoroethyl)pyridin-3-yl]carbonyl}-3,6-diazabicyclo[3.2.1]octane]
0.016 | 41 | 0.648 | Cc1cc(C)nc(N2CC3CC2CN(C(=O)c2cccnc2OCC(C)C)C3)n1 (stereo not drawn) [Example 40, 6-(4,6-dimethyl-pyrimidin-2-yl)-3-{[2-(2-methylpropoxy)pyridin-3-yl]carbonyl}-3,6-diazabicyclo[3.2.1]octane]
0.017 | 119 | 2.02 | Cc1cc(C)nc(N2CC3CC2CN(C(=O)c2ccccc2CC(F)(F)F)C3)n1 (stereo not drawn) [Example 25, 6-(4,6-dimethylpyrimidin-2-yl)-3-{[2-(2,2,2-trifluoroethyl)phenyl]carbonyl}-3,6-diazabicyclo[3.2.1]octane]
0.033 | 117 | 3.86 | Cc1cc(C)nc(N2CC3CC2CN(C(=O)c2nccnc2OCC(F)F)C3)n1 (stereo not drawn) [Example 49, 3-{[3-[2,2-difluoroethoxy)pyrazin-2-yl]carbonyl}-6-(4,6-dimethylpyrimidin-2-yl)-3,6-diazabicyclo[3.2.1]octane]

SMILES | IC50 [1] [µM] | Fold Selective [1] | IC50 [2] [µM]
Cc1cc(C)nc(N2CC3CC2CN(C(=O)c2cccnc2N(C)CC(F)F)C3)n1 (single isomer, unassigned) [Example 47] | 0.029 | 261 | 7.56
Cc1cc(C)nc(N2CC3CC2CN(C(=O)c2cc(F)cnc2C2CC2)C3)n1 (stereo not drawn) [Example 8] | 0.029 | 202 | 5.86
Cc1cc(C)nc(N2CC3CC2CN(C(=O)c2cc(F)ccc2C2CC2)C3)n1 (stereo not drawn) [Example 12, 3-[(2-cyclopropyl-5-fluorophenyl)carbonyl]-6-(4,6-dimethylpyrimidin-2-yl)-3,6-diazabicyclo[3.2.1]octane] | 0.022 | 47 | 1.03
